Calls of active or inactive are those of the source.
Legend:
Protein skinhead-1 = target: T1, Protein skinhead-1 (Caenorhabditis elegans, UniProt P34707); assay type: functional
T1 sequence (P34707 whole entry): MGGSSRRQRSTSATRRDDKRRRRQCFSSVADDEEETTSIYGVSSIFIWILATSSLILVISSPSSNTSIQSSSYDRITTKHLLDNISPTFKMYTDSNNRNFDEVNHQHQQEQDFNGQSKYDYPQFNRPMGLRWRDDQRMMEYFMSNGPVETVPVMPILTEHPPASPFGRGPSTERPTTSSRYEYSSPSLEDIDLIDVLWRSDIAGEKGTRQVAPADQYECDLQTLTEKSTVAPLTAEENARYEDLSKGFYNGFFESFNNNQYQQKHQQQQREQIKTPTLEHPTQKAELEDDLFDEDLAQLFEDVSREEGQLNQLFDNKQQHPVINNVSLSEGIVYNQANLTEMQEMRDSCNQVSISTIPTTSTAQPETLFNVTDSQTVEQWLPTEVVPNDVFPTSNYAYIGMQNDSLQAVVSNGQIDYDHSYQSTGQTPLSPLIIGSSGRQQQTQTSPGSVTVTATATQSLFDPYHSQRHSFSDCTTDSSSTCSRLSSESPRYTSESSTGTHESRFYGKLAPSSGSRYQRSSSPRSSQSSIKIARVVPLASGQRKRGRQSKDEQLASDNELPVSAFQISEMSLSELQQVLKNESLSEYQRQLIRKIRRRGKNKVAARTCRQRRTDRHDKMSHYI

[1] = target: T2, Sentrin-specific protease 6 (Homo sapiens, UniProt Q9GZR1); assay type: functional;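 further: Luminescence-based dose-response confirmatory assay of SENP6 inhibition, following up an ultra-high-throughput screen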
T2 sequence (Q9GZR1 whole entry): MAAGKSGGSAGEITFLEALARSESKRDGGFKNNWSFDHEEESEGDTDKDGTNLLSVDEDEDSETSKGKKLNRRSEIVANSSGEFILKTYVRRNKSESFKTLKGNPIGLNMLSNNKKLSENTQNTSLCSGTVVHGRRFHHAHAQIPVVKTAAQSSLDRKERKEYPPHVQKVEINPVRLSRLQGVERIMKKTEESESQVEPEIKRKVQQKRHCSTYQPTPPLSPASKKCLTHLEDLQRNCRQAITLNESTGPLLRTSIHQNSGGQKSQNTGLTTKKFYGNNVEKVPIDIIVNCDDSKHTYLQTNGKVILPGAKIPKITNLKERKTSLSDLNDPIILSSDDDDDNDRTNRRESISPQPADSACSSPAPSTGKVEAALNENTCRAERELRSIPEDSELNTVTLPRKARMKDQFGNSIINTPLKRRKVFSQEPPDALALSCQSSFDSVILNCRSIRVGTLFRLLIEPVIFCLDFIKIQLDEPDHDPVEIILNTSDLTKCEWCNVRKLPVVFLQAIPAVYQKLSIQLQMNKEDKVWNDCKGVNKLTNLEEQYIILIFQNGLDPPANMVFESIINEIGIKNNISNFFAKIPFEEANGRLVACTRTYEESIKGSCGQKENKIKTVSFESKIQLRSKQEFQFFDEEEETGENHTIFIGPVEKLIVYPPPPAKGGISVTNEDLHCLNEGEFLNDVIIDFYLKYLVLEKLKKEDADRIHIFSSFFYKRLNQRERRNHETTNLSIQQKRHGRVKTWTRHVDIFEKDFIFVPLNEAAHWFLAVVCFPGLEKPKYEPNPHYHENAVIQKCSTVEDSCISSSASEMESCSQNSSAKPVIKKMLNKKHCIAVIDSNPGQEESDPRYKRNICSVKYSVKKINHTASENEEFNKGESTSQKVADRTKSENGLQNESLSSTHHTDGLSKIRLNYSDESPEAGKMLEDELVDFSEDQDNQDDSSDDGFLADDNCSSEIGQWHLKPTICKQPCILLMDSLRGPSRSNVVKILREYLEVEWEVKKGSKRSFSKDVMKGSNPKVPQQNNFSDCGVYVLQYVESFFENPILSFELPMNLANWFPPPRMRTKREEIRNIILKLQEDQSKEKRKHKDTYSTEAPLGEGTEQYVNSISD

[2] = target: T3, Sentrin-specific protease 7 (Homo sapiens, UniProt Q9BQF6); assay type: functional;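 further: Luminescence-based dose-response confirmation of ultra-high-throughput screening hits, measuring inhibition of SENP7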
T3 sequence (Q9BQF6 whole entry): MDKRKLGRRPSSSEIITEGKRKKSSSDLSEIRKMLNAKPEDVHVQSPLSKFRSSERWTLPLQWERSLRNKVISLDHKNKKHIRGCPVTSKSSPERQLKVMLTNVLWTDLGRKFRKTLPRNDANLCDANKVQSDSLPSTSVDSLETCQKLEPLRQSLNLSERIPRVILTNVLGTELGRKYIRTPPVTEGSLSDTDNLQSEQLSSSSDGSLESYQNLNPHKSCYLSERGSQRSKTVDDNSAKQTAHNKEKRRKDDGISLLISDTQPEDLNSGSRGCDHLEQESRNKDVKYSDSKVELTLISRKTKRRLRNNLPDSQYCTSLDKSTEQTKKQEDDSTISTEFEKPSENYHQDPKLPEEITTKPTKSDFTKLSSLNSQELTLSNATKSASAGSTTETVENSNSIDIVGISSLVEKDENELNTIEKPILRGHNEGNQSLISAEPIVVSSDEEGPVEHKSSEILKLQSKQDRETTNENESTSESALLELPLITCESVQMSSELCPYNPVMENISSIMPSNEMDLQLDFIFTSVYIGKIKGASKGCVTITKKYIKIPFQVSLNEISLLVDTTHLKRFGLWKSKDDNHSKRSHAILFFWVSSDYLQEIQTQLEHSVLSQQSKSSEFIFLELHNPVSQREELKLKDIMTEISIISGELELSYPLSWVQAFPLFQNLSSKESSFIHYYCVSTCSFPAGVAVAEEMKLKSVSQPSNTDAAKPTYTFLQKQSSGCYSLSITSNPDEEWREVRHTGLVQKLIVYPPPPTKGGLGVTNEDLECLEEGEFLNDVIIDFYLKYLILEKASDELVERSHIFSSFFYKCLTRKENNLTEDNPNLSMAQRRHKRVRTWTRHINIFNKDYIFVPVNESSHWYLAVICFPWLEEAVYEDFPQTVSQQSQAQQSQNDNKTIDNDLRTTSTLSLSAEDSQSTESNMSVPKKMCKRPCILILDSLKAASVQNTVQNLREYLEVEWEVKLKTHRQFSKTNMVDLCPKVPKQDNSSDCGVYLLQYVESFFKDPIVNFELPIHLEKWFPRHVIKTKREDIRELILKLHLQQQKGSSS

[3] = target: T4, Sentrin-specific protease 8 (Homo sapiens, UniProt Q96LD8); assay type: functional;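 further: luminescence read-out of SENP8 inhibition, dose-response confirmation following an ultra-high-throughput screen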
T4 sequence (Q96LD8 whole entry): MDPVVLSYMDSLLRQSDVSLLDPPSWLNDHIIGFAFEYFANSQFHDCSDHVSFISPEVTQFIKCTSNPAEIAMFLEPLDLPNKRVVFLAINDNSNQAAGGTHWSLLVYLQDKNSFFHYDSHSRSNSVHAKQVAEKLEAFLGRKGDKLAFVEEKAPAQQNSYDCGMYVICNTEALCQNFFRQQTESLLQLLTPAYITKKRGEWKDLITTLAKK

Caspase-3 = target: T5, Caspase-3 (Homo sapiens, UniProt P42574); assay type: functional;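 further: Dose-response selectivity test against caspase-3 for candidate inhibitors of sentrin-specific proteases (SENPs)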
T5 sequence (P42574 whole entry): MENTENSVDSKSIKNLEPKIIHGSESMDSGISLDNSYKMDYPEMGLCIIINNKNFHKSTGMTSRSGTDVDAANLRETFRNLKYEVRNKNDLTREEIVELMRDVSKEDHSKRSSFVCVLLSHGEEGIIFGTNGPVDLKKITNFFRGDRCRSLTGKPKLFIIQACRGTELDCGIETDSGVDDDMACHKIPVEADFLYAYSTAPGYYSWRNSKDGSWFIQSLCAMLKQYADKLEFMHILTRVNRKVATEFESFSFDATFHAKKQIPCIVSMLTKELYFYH

[4] = target: T6, High affinity choline transporter 1 (Homo sapiens, UniProt Q9GZV3); assay: CHT inhibitors, dose response, cell-based, 5-point CRC, membrane potential dye (AID 504840); assay type: functional
T6 sequence (Q9GZV3 whole entry): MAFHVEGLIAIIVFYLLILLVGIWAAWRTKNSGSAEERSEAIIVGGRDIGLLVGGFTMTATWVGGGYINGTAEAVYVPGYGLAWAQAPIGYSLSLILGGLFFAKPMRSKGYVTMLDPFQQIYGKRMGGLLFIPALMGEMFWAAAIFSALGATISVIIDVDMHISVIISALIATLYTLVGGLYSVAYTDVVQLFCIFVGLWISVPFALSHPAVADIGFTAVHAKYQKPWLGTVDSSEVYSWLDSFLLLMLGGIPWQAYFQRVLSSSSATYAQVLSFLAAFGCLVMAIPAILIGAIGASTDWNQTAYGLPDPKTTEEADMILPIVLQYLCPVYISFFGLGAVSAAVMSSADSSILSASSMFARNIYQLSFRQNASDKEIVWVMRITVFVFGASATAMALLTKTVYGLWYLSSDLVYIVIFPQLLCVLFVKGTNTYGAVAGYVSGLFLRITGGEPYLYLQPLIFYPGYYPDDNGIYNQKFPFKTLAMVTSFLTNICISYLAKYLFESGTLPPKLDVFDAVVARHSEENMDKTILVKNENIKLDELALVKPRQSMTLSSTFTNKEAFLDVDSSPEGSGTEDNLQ

[5] = target: T6, High affinity choline transporter 1; assay: CHT inhibitors, dose response, cell-based, 10-point CRC, membrane potential dye (AID 588401); assay type: functional;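 further: membrane potential dye fluorescence of choline-evoked depolarization via CHT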
[6] = target: T7, RNA-binding protein pos-1 (Caenorhabditis elegans, UniProt G5EF15); assay: inhibitors of POS-1/mex-3 RNA binding, dose response, biochemical, fluorescence polarization (AID 1964);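 further: purified POS-1 fused to maltose binding protein made in E. coli; potency of compounds blocking POS-1 binding to fluorescent RNA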
T7 sequence (G5EF15 whole entry): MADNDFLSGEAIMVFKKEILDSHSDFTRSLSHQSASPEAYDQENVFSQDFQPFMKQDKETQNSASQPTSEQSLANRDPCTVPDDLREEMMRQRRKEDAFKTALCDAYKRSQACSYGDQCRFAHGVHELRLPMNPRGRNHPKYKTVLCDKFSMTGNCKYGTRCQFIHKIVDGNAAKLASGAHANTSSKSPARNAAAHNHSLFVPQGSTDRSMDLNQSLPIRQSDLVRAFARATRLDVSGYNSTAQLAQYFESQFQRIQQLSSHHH

[7] = target: T8, Zinc finger protein mex-5 (Caenorhabditis elegans, UniProt Q9XUB2); assay: MEX-5/TCR-2 RNA interaction inhibitors, dose response, biochemical, C. elegans, fluorescence polarization (AID 1960)
T8 sequence (Q9XUB2 whole entry): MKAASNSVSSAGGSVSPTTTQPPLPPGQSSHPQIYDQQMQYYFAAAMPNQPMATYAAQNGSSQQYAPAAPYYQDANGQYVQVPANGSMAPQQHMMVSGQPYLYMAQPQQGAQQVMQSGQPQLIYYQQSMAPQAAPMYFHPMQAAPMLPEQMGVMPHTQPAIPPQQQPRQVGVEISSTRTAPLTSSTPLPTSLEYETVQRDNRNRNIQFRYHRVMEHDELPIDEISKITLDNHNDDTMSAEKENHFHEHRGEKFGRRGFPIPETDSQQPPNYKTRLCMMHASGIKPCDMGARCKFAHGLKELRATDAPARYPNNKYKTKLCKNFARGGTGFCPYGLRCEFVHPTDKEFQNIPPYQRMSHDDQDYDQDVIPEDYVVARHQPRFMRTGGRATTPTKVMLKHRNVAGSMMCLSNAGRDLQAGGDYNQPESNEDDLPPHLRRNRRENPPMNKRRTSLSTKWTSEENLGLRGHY

Compound	IC50 (Protein skinhead-1)	IC50 [1]	IC50 [2]	IC50 [3]	IC50 (Caspase-3)	IC50 [4]	IC50 [5]	EC50 [6]	EC50 [7]
Clc1ccc(-c2nnc(-c3ccccc3Cl)o2)cc1	> 100 µM (inactive)	3.19 µM (active)	2.65 µM (active)	8.03 µM (active)	3.19 µM (active)	–	–	–	–
O=C(/C=C/c1ccco1)Nc1ccc(N2CCCC2)cc1	–	> 100 µM (inactive)	> 100 µM (inactive)	> 100 µM (inactive)	> 100 µM (inactive)	–	–	–	–
O=C(C[n+]1cccc(Br)c1)c1ccc(-c2ccccc2)cc1	–	–	–	–	–	2.83 µM (active)	1 µM (active)	–	–
CCC(C)c1ccc(NC(S)=NC(C)C2CCCO2)cc1 (stereo unspecified)	–	–	–	–	–	5.01 µM (active)	4.09 µM (active)	–	–
Cc1n[nH]c(C)c1Sc1ccccc1/N=C/c1cc(Cl)cc([N+](=O)[O-])c1O	–	–	–	–	–	8.88 µM (active)	6.23 µM (active)	> 300 µM (inconclusive)	7.57 µM (inconclusive)
Brc1ccc(/C=N/Nc2ccccn2)cc1	–	4.07 µM (active)	2.96 µM (active)	> 100 µM (inactive)	15.8 µM (active)	–	–	–	–

Reference: ChEMBL document CHEMBL1201862, “PubChem BioAssay data set” (2004)
